According to US20070092474A1, “Carnitine salt, preliposome which contains it and dermocosmetic formula for topical use based upon said carnitine salt” (priority 2003, published 2007):
Several values for one entry are separate records, joined by “and”; a condition that tells them apart may be missing. Equal entries are not always repeated.

System: skin blemishes caused by cellulite and localised adiposity
Experiment: Plicometry: skin plica thickness measured with a plicometer, dermatological test of the cosmetic gel
Assay type: in vivo, female volunteers
Set-up: RIGHT PLICOMETRY 1/3 T0 / RIGHT PLICOMETRY 3/3 T15 / RIGHT PLICOMETRY 3/3 T30 / RIGHT PLICOMETRY 3/3 T60 / RIGHT PLICOMETRY 1/3 T15 / RIGHT PLICOMETRY 1/3 T30 / RIGHT PLICOMETRY 1/3 T60 / RIGHT PLICOMETRY 2/3 T0 / RIGHT PLICOMETRY 2/3 T15 / RIGHT PLICOMETRY 2/3 T30 / RIGHT PLICOMETRY 2/3 T60 / RIGHT PLICOMETRY 3/3 T0 / LEFT PLICOMETRY 1/3 T0 / LEFT PLICOMETRY 3/3 T15 / LEFT PLICOMETRY 3/3 T30 / LEFT PLICOMETRY 3/3 T60 / LEFT PLICOMETRY 1/3 T30 / LEFT PLICOMETRY 1/3 T60 / LEFT PLICOMETRY 2/3 T0 / LEFT PLICOMETRY 2/3 T15 / LEFT PLICOMETRY 2/3 T30 / LEFT PLICOMETRY 2/3 T60 / LEFT PLICOMETRY 3/3 T0: unit not given beside the values
Procedure: A dermatological test was carried out on 25 female volunteers between 18 and 65 years of age, with the backing of the Department of Physiological and Pharmacological Sciences of the university of Pavia. The investigation aimed to check the modification of three anatomical-physiological parameters, qualifying the unaesthetic-functional aspect connected to the manifestation of so-called cellulite and subcutaneous hypertriglyceridaemia: measurement of the skin folds, measurement of the circumference of the thighs, thermographic skin measurement.
The test stretched out over 60 days with the continual daily application of the aforementioned preparation of cosmetic gel. The measurements were carried out after 15, 30 and 60 days. The detail of the test protocol and of the results obtained is shown hereafter.
25 female volunteers aged between 18 and 65, with the presence of skin blemishes caused by cellulite and localised adiposity, were selected according to the following criteria: good general state of health, absence of skin pathologies, not being under medication, commitment not to vary the normal daily routine, no medical history of atopy.
The samples were tested by uniformly applying them on “Glute SX Glute DJ (Femoris Posto SX Femoris Posto DX Femoris Ant. SX Femoris Ant. DX” every day at least once per day for the entire duration of the test.
At the time of inclusion in the study and during the subsequent checks after 15 days (T15), after 30 days (T30) and after 60 days (T60) of treatment the following instrumental measurements were taken: • plicometry (through a plicometer) • thigh circumference (through a measuring tape broken into millimetres) • contact thermography (through liquid crystal thermographic plates).
In particular, the plicometer used in the test constitutes the suitable instrument for measuring the skin plica thickness. Skin plicometry provides numerical data of particular use when the panniculopathic process of the cellulite is associated with localised adiposity.

[1] = MEDIA of 25 volunteers, T0 at inclusion, before treatment
[2] = MEDIA of 25 volunteers, after 15 days of daily gel application
[3] = MEDIA of 25 volunteers, after 30 days of daily gel application
[4] = MEDIA of 25 volunteers, after 60 days of daily gel application
[5] = individual volunteer, T0 at inclusion, before treatment
[6] = individual volunteer, after 15 days of daily gel application
[7] = individual volunteer, after 30 days of daily gel application
[8] = individual volunteer, after 60 days of daily gel application

Question: What does the source list for “carnitine hydroxycitrate [carnitine hydroxy citrate]”?
Answer: LEFT PLICOMETRY 1/3 T0, MEDIA [1]: 25.7; LEFT PLICOMETRY 2/3 T0, MEDIA [1]: 29.6; LEFT PLICOMETRY 3/3 T0, MEDIA [1]: 31.2; RIGHT PLICOMETRY 1/3 T0, MEDIA [1]: 25.7; RIGHT PLICOMETRY 2/3 T0, MEDIA [1]: 30.9; RIGHT PLICOMETRY 3/3 T0, MEDIA [1]: 33.0; LEFT PLICOMETRY 1/3 T15, MEDIA [2]: 25.3; LEFT PLICOMETRY 2/3 T15, MEDIA [2]: 28.9; LEFT PLICOMETRY 3/3 T15, MEDIA [2]: 30.6; RIGHT PLICOMETRY 1/3 T15, MEDIA [2]: 24.4; RIGHT PLICOMETRY 2/3 T15, MEDIA [2]: 29.6; RIGHT PLICOMETRY 3/3 T15, MEDIA [2]: 32.3; LEFT PLICOMETRY 1/3 T30, MEDIA [3]: 23.5; LEFT PLICOMETRY 2/3 T30, MEDIA [3]: 27.3; LEFT PLICOMETRY 3/3 T30, MEDIA [3]: 29.1; RIGHT PLICOMETRY 1/3 T30, MEDIA [3]: 23.4; RIGHT PLICOMETRY 2/3 T30, MEDIA [3]: 28.3; RIGHT PLICOMETRY 3/3 T30, MEDIA [3]: 30.9; LEFT PLICOMETRY 1/3 T60, MEDIA [4]: 22.5; LEFT PLICOMETRY 2/3 T60, MEDIA [4]: 26.6; LEFT PLICOMETRY 3/3 T60, MEDIA [4]: 28.2; RIGHT PLICOMETRY 1/3 T60, MEDIA [4]: 22.7; RIGHT PLICOMETRY 2/3 T60, MEDIA [4]: 27.7; RIGHT PLICOMETRY 3/3 T60, MEDIA [4]: 29.9; LEFT PLICOMETRY 1/3 T0 [5]: 23.3 and 17.8 and 35.9 and 24.9 (2×) and 21.1 and 25.9 and 19.8 and 26.7 and 26.0 and 31.1 and 26.6 and 19.7 and 22.9 (2×) and 24.6 and 32.8 and 28.1 and 24.0 and 30.8 and 27.9 and 22.8 and 34.6 and 16.8 and 30.5; LEFT PLICOMETRY 2/3 T0 [5]: 28.7 and 22.6 and 38.8 and 24.8 and 27.1 and 28.9 and 28.1 and 40.9 and 33.9 and 30.8 and 27.6 and 24.3 and 27.8 and 20.6 and 31.8 and 29.9 and 22.9 and 27.2 and 25.4 and 35.4 and 39.7 and 25.3 and 41.6 and 23.5 and 32.5; LEFT PLICOMETRY 3/3 T0 [5]: 34.9 and 21.8 and 37.9 and 27.8 and 30.8 and 33.3 and 26.8 and 41.6 and 28.1 and 35.9 (2×) and 35.3 and 20.6 and 33.5 (2×) and 20.1 and 20.3 and 37.2 and 17.8 and 34.1 and 41.5 and 22.9 and 40.9 and 28.9 and 38.1; RIGHT PLICOMETRY 1/3 T0 [5]: 30.5 and 23.3 and 17.8 and 35.9 and 24.9 (2×) and 21.1 and 25.9 and 19.8 and 26.7 and 26.0 and 31.1 and 26.6 and 19.7 and 22.9 (2×) and 24.6 and 32.8 and 28.1 and 24.0 and 30.8 and 27.9 and 22.8 and 34.6 and 16.8; RIGHT PLICOMETRY 2/3 T0 [5]: 37.2 and 30.8 and 26.7 and 32.8 and 20.9 and 29.2 and 36.8 and 26.3 and 34.9 and 35.5 and 33.5 and 29.7 and 24.8 and 29.9 and 22.4 and 31.2 and 33.7 and 27.7 and 26.8 and 25.3 and 37.8 and 41.5 and 28.8 and 39.8 and 27.0; RIGHT PLICOMETRY 3/3 T0 [5]: 40.1 and 41.6 and 25.9 and 32.7 and 29.9 (2×) and 33.8 and 37.1 and 39.8 and 40.6 and 37.7 and 36.8 (2×) and 28.8 and 29.4 and 25.6 and 32.3 and 39.9 and 22.3 and 19.8 and 35.1 and 42.6 and 22.9 and 36.2 and 26.8; LEFT PLICOMETRY 1/3 T15 [6]: 22.6 (3×) and 17.1 and 35.2 and 24.2 (2×) and 20.4 and 25.2 and 19.1 and 26.0 and 25.3 and 30.4 and 27.2 and 19.6 and 23.9 and 32.9 and 27.4 and 24.6 and 30.6 and 27.8 and 22.8 and 33.9 and 16.1 and 29.8; LEFT PLICOMETRY 2/3 T15 [6]: 28.0 and 21.9 and 38.1 and 24.1 and 26.4 and 28.2 and 27.4 and 40.2 and 33.2 and 30.1 and 26.9 and 23.6 and 27.1 and 19.9 and 31.1 and 29.2 and 22.2 and 26.5 and 24.7 and 34.7 and 39.0 and 24.6 and 40.9 and 22.8 and 31.8; LEFT PLICOMETRY 3/3 T15 [6]: 34.3 and 21.2 and 37.3 and 27.2 and 30.2 and 32.7 and 26.2 and 41.0 and 27.5 and 35.3 (2×) and 34.7 and 20.0 and 32.9 (2×) and 19.5 and 19.7 and 36.6 and 17.2 and 33.5 and 40.9 and 22.3 and 40.3 and 28.3 and 37.5; RIGHT PLICOMETRY 1/3 T15 [6]: 29.0 and 22.0 and 16.5 and 34.5 and 23.5 (2×) and 19.6 and 24.5 and 18.4 and 25.3 and 24.2 and 30.0 and 27.1 and 19.5 and 23.0 and 23.2 and 31.0 and 20.3 and 26.7 and 22.6 and 29.4 and 26.5 and 21.4 and 33.2 and 15.4; RIGHT PLICOMETRY 2/3 T15 [6]: 35.7 and 28.5 and 25.2 and 30.8 and 19.4 and 27.7 and 35.3 and 24.8 (2×) and 33.4 and 34.0 and 32.0 and 27.3 (2×) and 23.0 and 29.6 and 20.9 and 31.5 and 32.2 and 27.8 and 25.3 and 38.1 and 40.0 and 37.3 and 27.0; RIGHT PLICOMETRY 3/3 T15 [6]: 40.0 (2×) and 24.9 and 31.7 and 28.9 (2×) and 32.8 and 37.5 and 39.6 and 39.8 and 37.8 and 35.9 and 28.2 and 28.4 and 26.1 and 32.0 and 38.9 and 21.3 and 37.0 and 18.8 and 34.1 and 41.6 and 21.9 and 34.9 and 25.8; LEFT PLICOMETRY 1/3 T30 [7]: 21.0 and 15.5 and 33.6 and 22.6 and 18.8 and 23.6 and 17.5 and 24.4 and 23.7 and 28.8 and 24.3 and 17.4 and 20.6 and 22.3 and 30.5 and 23.5 and 20.2 and 25.8 and 23.8 and 28.5 and 25.6 and 21.6 and 32.3 and 14.5 and 28.2; LEFT PLICOMETRY 2/3 T30 [7]: 26.4 and 20.3 and 36.5 and 22.5 and 24.8 and 26.6 and 25.8 and 38.6 and 31.6 and 28.5 and 25.3 and 22.0 and 25.5 and 18.3 and 29.5 and 27.6 and 20.6 and 24.9 and 23.0 (2×) and 33.5 and 37.4 and 39.3 and 21.2 and 30.2; LEFT PLICOMETRY 3/3 T30 [7]: 32.8 and 19.7 and 35.8 and 25.7 and 28.7 and 31.2 and 24.7 and 39.5 and 26.0 and 33.8 (2×) and 33.2 and 18.5 (2×) and 31.4 (2×) and 18.2 and 35.1 and 15.7 and 32.0 and 39.4 and 20.8 and 38.8 and 26.8 and 36.0; RIGHT PLICOMETRY 1/3 T30 [7]: 28.2 and 18.9 and 15.5 and 33.2 and 22.4 and 18.8 and 23.6 and 17.5 and 24.4 and 24.2 and 28.8 and 26.5 and 17.4 and 22.7 and 21.8 and 31.2 and 22.6 and 20.5 (2×) and 25.8 and 21.7 and 27.6 and 24.3 and 32.5 and 14.5; RIGHT PLICOMETRY 2/3 T30 [7]: 34.6 and 28.2 and 24.0 and 30.2 and 18.2 and 25.4 (2×) and 34.0 and 23.7 and 33.5 and 32.9 and 30.0 and 27.6 and 21.7 and 26.5 and 20.0 and 30.8 and 31.0 and 23.9 and 22.3 and 38.1 and 40.0 and 26.2 and 35.6 and 24.3; RIGHT PLICOMETRY 3/3 T30 [7]: 40.2 and 39.9 and 23.6 and 30.4 and 27.6 (2×) and 31.5 and 36.9 and 38.4 and 38.5 and 36.2 and 33.6 and 26.3 and 26.5 and 23.7 and 31.2 and 37.6 and 19.6 and 36.4 and 17.5 and 30.5 and 39.8 and 20.4 and 34.0 and 25.6; LEFT PLICOMETRY 1/3 T60 [8]: 20.5 and 15.0 and 30.9 and 22.1 (2×) and 18.3 and 23.1 and 17.0 and 23.9 (2×) and 23.2 and 27.6 and 23.6 and 16.5 and 18.4 and 21.2 and 30.5 and 19.8 and 25.3 and 20.7 and 26.2 and 21.5 and 30.4 and 14.0 and 27.7; LEFT PLICOMETRY 2/3 T60 [8]: 25.7 and 19.6 and 35.8 and 21.8 and 24.1 and 25.9 and 25.1 and 37.9 and 30.9 and 27.8 and 24.6 and 21.3 and 24.8 and 17.6 and 28.8 and 26.9 and 19.9 and 24.2 and 22.4 and 32.4 and 36.7 and 22.3 and 38.6 and 20.5 and 29.5; LEFT PLICOMETRY 3/3 T60 [8]: 31.9 and 18.8 and 34.9 and 24.8 and 27.8 and 30.3 and 23.8 and 38.6 and 25.1 and 33.2 and 32.3 and 17.6 and 29.6 and 17.2 and 30.5 and 32.9 and 18.5 and 34.2 and 14.8 and 31.0 and 38.5 and 19.9 and 37.9 and 25.9 and 35.1; RIGHT PLICOMETRY 1/3 T60 [8]: 27.5 and 20.5 and 15.0 and 32.1 and 22.0 and 17.8 and 23.0 and 16.7 (2×) and 23.7 and 24.6 and 27.6 and 26.6 and 21.5 and 21.7 and 28.9 and 21.4 and 18.4 and 24.1 and 21.3 and 28.0 and 23.9 and 19.9 and 31.7 and 13.8; RIGHT PLICOMETRY 2/3 T60 [8]: 34.0 and 26.3 and 23.2 and 29.4 and 17.3 and 26.0 and 32.8 and 23.5 and 33.6 and 32.1 and 30.0 and 26.5 and 20.9 and 26.7 and 20.0 and 27.8 and 29.7 and 25.6 (2×) and 23.9 and 21.8 and 37.7 and 40.0 and 35.3 and 23.8; RIGHT PLICOMETRY 3/3 T60 [8]: 38.9 and 37.4 (2×) and 22.3 (2×) and 29.4 and 27.0 and 32.1 and 35.2 and 36.8 and 26.9 and 35.6 and 33.2 (2×) and 25.3 and 26.6 and 29.5 and 35.4 and 18.2 and 34.1 and 17.0 and 30.9 and 39.8 and 19.7 and 23.7
